Measurements as given in ChEMBL document CHEMBL6103628, “Structural Optimization of Covalent Inhibitors for Deubiquitinase ChlaDUB1 of Chlamydia trachomatis as Antibiotic Agents” (J Med Chem, 2025).
Active and inactive are the calls of the source. The rule behind the calls is not given here.

Legend:
[1] = molecular target: T1, Deubiquitinase and deneddylase Dub1 (Chlamydia trachomatis serovar L2 (strain ATCC VR-902B / DSM 19102 /434/Bu)) (UniProt B0B9A0); assay: Inhibition of recombinant Chlamydia trachomatis DUB1 (130 to 401 residues) using Ub-Rh110Gly as fluorogenic substrate at highest concentration incubated for 60 to 360 mins by enzymatic analysis; conditions: time 60-360 min
T1 sequence (whole entry): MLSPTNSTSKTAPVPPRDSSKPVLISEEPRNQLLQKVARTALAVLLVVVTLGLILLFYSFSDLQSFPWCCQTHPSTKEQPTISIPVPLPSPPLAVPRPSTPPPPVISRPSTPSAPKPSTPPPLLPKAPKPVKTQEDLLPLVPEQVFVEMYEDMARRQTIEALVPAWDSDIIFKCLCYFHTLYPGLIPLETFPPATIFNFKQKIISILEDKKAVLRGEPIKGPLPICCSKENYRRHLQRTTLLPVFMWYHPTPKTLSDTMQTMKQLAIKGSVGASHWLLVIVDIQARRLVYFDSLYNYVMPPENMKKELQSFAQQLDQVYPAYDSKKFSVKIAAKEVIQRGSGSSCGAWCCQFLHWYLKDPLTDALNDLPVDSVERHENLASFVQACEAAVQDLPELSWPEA

[2] = Cytotoxicity against HDFa cells assessed as cell viability at 128 ug/mL measured after 20 hrs by XTT assay relative to control; format: toxicity, cell-based; conditions: human, at 128 µg/mL, read-out: Activity
[3] = molecular target: T2, Deubiquitinase and deneddylase Dub2 (Chlamydia trachomatis) (UniProt O84875); assay: Mixed type inhibition of Chlamydia trachomatis DUB2 incubated for 60 mins
T2 sequence (whole entry): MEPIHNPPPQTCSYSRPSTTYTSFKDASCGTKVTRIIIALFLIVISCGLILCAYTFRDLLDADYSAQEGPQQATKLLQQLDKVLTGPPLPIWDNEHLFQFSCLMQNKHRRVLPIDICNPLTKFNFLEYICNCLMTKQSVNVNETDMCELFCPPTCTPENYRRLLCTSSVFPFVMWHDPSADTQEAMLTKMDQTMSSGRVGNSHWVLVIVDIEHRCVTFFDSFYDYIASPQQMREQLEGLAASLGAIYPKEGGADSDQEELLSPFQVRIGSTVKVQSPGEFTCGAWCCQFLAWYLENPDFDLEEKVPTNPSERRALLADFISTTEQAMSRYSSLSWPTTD

[4] = tested on: Staphylococcus aureus; assay: Antimicrobial activity against methicillin- resistant Staphylococcus aureus JE2 upto 256 microg/ml incubated for 20 hrs by resazurin staining based microtiter plate reader analysis; format: functional, organism-based; conditions: dose <= 256.0 µg/ml
[5] = molecular target: T1, Deubiquitinase and deneddylase Dub1 (Chlamydia trachomatis serovar L2 (strain ATCC VR-902B / DSM 19102 /434/Bu)); assay: Non-covalent inhibition of recombinant Chlamydia trachomatis DUB1 (130 to 401 residues) using Ub-Rh110Gly as fluorogenic substrate incubated for 10 to 360 mins by enzymatic analysis; conditions: time 10-360 min
[6] = molecular target: Ubiquitin carboxyl-terminal hydrolase 7 (Homo sapiens) (UniProt Q93009); assay: Inhibition of human USP7 at 35 uM relative to control
Sequence of Ubiquitin carboxyl-terminal hydrolase 7 (Homo sapiens) (Q93009 whole entry, looked up): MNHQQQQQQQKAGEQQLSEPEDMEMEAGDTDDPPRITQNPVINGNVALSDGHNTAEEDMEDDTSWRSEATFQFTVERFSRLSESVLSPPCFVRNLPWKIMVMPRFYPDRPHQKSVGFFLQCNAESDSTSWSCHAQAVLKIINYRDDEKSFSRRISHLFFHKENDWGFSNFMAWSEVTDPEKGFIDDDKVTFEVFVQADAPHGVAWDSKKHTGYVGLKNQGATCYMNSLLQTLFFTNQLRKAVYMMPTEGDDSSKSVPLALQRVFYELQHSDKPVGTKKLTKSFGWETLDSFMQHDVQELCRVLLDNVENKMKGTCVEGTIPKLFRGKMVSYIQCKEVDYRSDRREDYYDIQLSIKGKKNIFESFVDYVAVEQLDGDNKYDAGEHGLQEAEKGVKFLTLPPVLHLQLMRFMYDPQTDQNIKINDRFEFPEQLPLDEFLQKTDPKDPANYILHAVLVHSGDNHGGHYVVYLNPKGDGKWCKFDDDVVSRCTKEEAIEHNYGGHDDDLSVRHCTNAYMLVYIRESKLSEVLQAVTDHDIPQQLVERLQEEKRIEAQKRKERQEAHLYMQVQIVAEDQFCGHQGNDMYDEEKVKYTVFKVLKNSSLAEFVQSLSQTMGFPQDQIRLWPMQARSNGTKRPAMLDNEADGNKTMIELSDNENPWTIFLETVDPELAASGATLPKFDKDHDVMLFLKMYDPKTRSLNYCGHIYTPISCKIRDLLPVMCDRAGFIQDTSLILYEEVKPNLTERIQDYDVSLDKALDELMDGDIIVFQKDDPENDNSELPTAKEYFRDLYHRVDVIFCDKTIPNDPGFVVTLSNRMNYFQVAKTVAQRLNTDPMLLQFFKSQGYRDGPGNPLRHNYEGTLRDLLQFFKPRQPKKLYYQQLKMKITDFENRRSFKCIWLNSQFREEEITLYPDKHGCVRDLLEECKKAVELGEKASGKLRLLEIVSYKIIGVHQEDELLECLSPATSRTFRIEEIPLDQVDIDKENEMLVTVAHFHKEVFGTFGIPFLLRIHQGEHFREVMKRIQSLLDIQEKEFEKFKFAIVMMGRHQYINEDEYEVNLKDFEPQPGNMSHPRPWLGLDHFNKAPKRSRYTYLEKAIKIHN

[7] = molecular target: T3, Ubiquitin thioesterase OTUB2 (Homo sapiens) (UniProt Q96DC9); assay: Inhibition of human OTUB2 at 35 uM relative to control
T3 sequence (whole entry): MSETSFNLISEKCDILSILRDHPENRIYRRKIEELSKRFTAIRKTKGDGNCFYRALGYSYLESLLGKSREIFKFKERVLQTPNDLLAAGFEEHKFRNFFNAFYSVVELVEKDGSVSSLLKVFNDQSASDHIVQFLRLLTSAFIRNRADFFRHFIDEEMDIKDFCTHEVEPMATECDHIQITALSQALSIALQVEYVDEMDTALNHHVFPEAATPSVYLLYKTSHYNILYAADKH

[8] = molecular target: T4, Deubiquitinase and deneddylase Dub2 (Chlamydia trachomatis, UniProt O84875); assay: Inhibition of Chlamydia trachomatis DUB2 incubated for 60 mins
T4 sequence (O84875 whole entry): T2 sequence (whole entry)

[9] = molecular target: T5, Ubiquitin carboxyl-terminal hydrolase 25 (Homo sapiens) (UniProt Q9UHP3); assay: Inhibition of human USP25 at 35 uM relative to control
T5 sequence (whole entry): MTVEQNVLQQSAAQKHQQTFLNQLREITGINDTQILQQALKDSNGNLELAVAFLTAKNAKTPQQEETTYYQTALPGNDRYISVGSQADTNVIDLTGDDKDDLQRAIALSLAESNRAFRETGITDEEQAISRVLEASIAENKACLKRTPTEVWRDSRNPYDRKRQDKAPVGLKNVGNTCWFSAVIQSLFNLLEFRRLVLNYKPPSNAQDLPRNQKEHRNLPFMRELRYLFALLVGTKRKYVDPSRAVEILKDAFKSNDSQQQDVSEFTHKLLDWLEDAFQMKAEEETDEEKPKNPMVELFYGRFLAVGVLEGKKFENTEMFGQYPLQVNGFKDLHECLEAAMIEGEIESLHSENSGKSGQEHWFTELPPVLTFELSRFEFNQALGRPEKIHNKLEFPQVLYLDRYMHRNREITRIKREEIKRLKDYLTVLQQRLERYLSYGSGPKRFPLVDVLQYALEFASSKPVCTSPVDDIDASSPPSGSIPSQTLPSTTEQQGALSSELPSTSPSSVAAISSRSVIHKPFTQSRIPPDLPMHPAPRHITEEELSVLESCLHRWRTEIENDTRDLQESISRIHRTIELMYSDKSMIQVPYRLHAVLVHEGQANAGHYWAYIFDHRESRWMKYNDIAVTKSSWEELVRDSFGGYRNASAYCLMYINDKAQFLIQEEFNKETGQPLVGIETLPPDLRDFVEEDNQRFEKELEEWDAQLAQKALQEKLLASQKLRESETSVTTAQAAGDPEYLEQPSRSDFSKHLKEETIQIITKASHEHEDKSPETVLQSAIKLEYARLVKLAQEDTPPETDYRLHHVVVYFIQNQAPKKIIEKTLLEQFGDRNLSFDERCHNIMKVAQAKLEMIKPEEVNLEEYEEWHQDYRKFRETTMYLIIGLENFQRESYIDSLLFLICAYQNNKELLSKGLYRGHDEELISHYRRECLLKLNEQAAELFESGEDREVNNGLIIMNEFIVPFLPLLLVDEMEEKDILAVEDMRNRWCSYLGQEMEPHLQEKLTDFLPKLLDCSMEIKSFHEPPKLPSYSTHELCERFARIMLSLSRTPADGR

SMILES: N#Cc1nccc(C(=O)NCc2nn(C(=O)Cc3ccccc3)c3ccccc23)n1
- inhibition [1]: Active; Complete Inhibition Not Observed
- viability at 20 h, 128 ug/mL [2]: 67%
- inhibition [3]: Active
- Activity [4]: inactive
- inhibition [5]: Active
- inhibition [6]: < 25%
- inhibition [7]: < 25%
- IC50 [8]: 30 µM
- inhibition [9]: < 25%
